Source: patent US20130136719A1, “COMPOUNDS AND METHODS FOR THE TREATMENT OR PREVENTION OF FLAVIVIRUS INFECTIONS” (VERTEX PHARMACEUTICALS INCORPORATED, priority 2009, published 2013)
Like-named read-outs stand apart in the source and are kept apart here.

How the values were obtained:
[1] = target: HCV RNA-dependent RNA polymerase (NS5B protein) (Hepatitis C virus genotype 1b, UniProt P26663); assay: biochemical; parameters: species or system HCV-Bk strain
[2] = [3H]Thymidine incorporation assay (CC50); conditions: human
[3] = tested on: HCV replicon (genotype 1b) in Huh7 cell line ET; assay: microbe, parasite or virus in culture; assay type: cell-based, HCV genotype 1b; conditions: read-out: HCV-Replicon-Luci-Et-1b_IC50
[4] = tested on: HCV sub-genomic replicon of genotype 1a in cell line W11.8; assay: microbe, parasite or virus in culture; assay type: cell-based, HCV genotype 1a; conditions: Hepatitis C virus, W11.8, 96 h, read-out: HCV-Replicon-ELISA-1a IC50

Chain of HCV RNA-dependent RNA polymerase (NS5B protein) (P26663 2420-2989 limits assumed): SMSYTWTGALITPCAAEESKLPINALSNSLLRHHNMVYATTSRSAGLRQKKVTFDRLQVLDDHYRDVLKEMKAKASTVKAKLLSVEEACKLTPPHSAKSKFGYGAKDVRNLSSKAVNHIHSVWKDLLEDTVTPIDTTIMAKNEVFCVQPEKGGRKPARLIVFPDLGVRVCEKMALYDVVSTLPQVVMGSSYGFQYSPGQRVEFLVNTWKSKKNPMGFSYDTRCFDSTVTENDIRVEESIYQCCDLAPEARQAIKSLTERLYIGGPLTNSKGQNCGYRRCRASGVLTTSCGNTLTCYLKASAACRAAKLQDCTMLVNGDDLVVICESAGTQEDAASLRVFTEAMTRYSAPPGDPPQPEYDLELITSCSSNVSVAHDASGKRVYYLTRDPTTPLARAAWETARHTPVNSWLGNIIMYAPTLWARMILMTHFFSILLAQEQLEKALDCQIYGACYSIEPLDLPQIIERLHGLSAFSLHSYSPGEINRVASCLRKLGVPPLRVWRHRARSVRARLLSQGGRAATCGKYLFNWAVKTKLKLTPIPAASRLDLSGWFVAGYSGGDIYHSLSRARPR

Compound | IC50 [1] [nM] | CC50 at 72 h [2] [nM] | IC50 ([3]; Hepatitis C virus, Huh-7, 96 h) [nM] | IC50 [4] [nM] | IC50 ([1]; read-out: HCV Polymerase_1b IC50, recombinant truncated NS5B genotype 1b, poly rA/oligo dT, [3H]UTP SPA) [nM] | IC50 [3] [nM]
CC(C)(C)C#Cc1cc(N(C(=O)c2ccc(Cl)c(F)c2)[C@H]2CC[C@H](O)CC2)c(C(=O)O)s1 [Compound 52, 3-[(4-Chloro-3-fluoro-benzoyl)-(trans-4-hydroxy-cyclohexyl)-amino]-5-(3,3-dimethyl-but-1-ynyl)-thiophene-2-carboxylic acid] | 1000 to 10000 | 10000 to 100000 | – | – | – | –
COCCN(C(=O)c1ccc(Cl)cc1Cl)c1cc(C#CC(C)(C)C)sc1C(=O)O [Compound 44, 3-[(2,4-Dichloro-benzoyl)-(2-methoxy-ethyl)-amino]-5-(3,3-dimethyl-but-1-ynyl)-thiophene-2-carboxylic acid] | 100 to 1000 | 10000 to 100000 | < 100 | 100 to 1000 | – | –
CC(C)(C)C#Cc1cc(N(C(=O)c2ccccc2Cl)[C@H]2CC[C@H](O)CC2)c(C(=O)O)s1 [Compound 87, 3-[(2-Chloro-benzoyl)-(trans-4-hydroxy-cyclohexyl)-amino]-5-(3,3-dimethyl-but-1-ynyl)-thiophene-2-carboxylic acid] | 1000 to 10000 | > 100000 | – | – | – | –
Cc1ccc(C(=O)N(c2cc(C#CC(C)(C)C)sc2C(=O)O)[C@H]2CC[C@H](O)CC2)c(F)c1F [Compound 89, 3-[(2,3-Difluoro-4-methyl-benzoyl)-(trans-4-hydroxy-cyclohexyl)-amino]-5-(3,3-dimethyl-but-1-ynyl)-thiophene-2-carboxylic acid] | 1000 to 10000 | 10000 to 100000 | – | – | – | –
Cc1ccccc1C(=O)N(c1cc(C#CC(C)(C)C)sc1C(=O)O)[C@H]1CC[C@H](O)CC1 [Compound 88, 5-(3,3-Dimethyl-but-1-ynyl)-3-[(trans-4-hydroxy-cyclohexyl)-(2-methyl-benzoyl)-amino]-thiophene-2-carboxylic acid] | 1000 to 10000 | > 100000 | – | – | – | –
CC(C)(C)C#Cc1cc(N(C(=O)c2ccc(F)cc2)[C@H]2CC[C@H](O)CC2)c(C(=O)O)s1 [Compound 51, 5-(3,3-Dimethyl-but-1-ynyl)-3-[(4-fluoro-benzoyl)-(trans-4-hydroxy-cyclohexyl)-amino]-thiophene-2-carboxylic acid] | 1000 to 10000 | > 100000 | – | – | – | –
Cc1ccc(C(=O)N(c2cc(C#CC(C)(C)C)sc2C(=O)O)[C@H]2CC[C@H](O)CC2)cc1F [Compound 24, 5-(3,3-Dimethyl-but-1-ynyl)-3-[(3-fluoro-4-methyl-benzoyl)-(trans-4-hydroxy-cyclohexyl)-amino]-thiophene-2-carboxylic acid] | 1000 to 10000 | 10000 to 100000 | < 100 | – | – | –
CC(C)(C)C#Cc1cc(N(C(=O)c2ccc(Cl)cc2F)[C@H]2CC[C@H](O)CC2)c(C(=O)O)s1 [Compound 17, 3-[(4-Chloro-2-fluoro-benzoyl)-(trans-4-hydroxy-cyclohexyl)-amino]-5-(3,3-dimethyl-but-1-ynyl)-thiophene-2-carboxylic acid] | 1000 to 10000 | – | < 100 | – | – | –
Cc1ccc(C(=O)N(c2cc(C#CC(C)(C)C)sc2C(=O)O)[C@H]2CC[C@H](O)CC2)c(Cl)c1 [Compound 53, 3-[(2-Chloro-4-methyl-benzoyl)-(trans-4-hydroxy-cyclohexyl)-amino]-5-(3,3-dimethyl-but-1-ynyl)-thiophene-2-carboxylic acid] | 1000 to 10000 | 10000 to 100000 | – | – | – | –
CC(C)(C)C#Cc1cc(N(CCO)C(=O)c2ccc(Cl)cc2Cl)c(C(=O)O)s1 [Compound 97, 3-[(2,4-Dichloro-benzoyl)-(2-hydroxy-ethyl)-amino]-5-(3,3-dimethyl-but-1-ynyl)-thiophene-2-carboxylic acid] | 100 to 1000 | 10000 to 100000 | 100 to 1000 | – | – | –
Cc1ccc(C(=O)N(c2cc(C#CC(C)(C)C)sc2C(=O)O)[C@H]2CC[C@H](O)CC2)cc1 [Compound 19, 5-(3,3-Dimethyl-but-1-ynyl)-3-[(trans-4-hydroxy-cyclohexyl)-(4-methyl-benzoyl)-amino]-thiophene-2-carboxylic acid] | 1000 to 10000 | – | – | – | – | –
CC(C)(C)C#Cc1cc(N(C(=O)c2ccc(Cl)cc2)[C@H]2CC[C@H](O)CC2)c(C(=O)O)s1 [Compound 16, 3-[(4-Chloro-benzoyl)-(trans-4-hydroxy-cyclohexyl)-amino]-5-(3,3-dimethyl-but-1-ynyl)-thiophene-2-carboxylic acid] | 100 to 1000 | 10000 to 100000 | – | – | – | –
CC(C)(C)C#Cc1cc(N(C(=O)c2ccc(Cl)cc2Cl)[C@H]2CC[C@H](O)CC2)c(C(=O)O)s1 [Compound 2, 3-[(2,4-Dichloro-benzoyl)-(trans-4-hydroxy-cyclohexyl)-amino]-5-(3,3-dimethyl-but-1-ynyl)-thiophene-2-carboxylic acid] | 100 to 1000 | – | < 100 | – | – | –
Cc1ccc(C(=O)N(c2cc(C#CC(C)(C)C)sc2C(=O)O)[C@H]2CC[C@H](O)CC2)c(C)c1 [Compound 18, 3-[(2,4-Dimethyl-benzoyl)-(trans-4-hydroxy-cyclohexyl)-amino]-5-(3,3-dimethyl-but-1-ynyl)-thiophene-2-carboxylic acid] | 100 to 1000 | 10000 to 100000 | < 100 | – | – | –
CC(C)N(C(=O)c1ccc(Cl)cc1Cl)c1cc(C#CC(C)(C)C)sc1C(=O)O [Compound 1, 3-[(2,4-Dichloro-benzoyl)-isopropyl-amino]-5-(3,3-dimethyl-but-1-ynyl)-thiophene-2-carboxylic acid] | – | – | – | – | 100 to 1000 | 100 to 1000
CC(C)N(C(=O)c1ccc(Cl)cc1Cl)c1cc(C#CC(C)(C)C)sc1C(=O)O [Compound 96, Sodium 3-[(2,4-dichloro-benzoyl)-isopropyl-amino]-5-(3,3-dimethyl-but-1-ynyl)-thiophene-2-carboxylate] | 100 to 1000 | 10000 to 100000 | < 100 | – | – | –
CC(C)(C)C#Cc1cc(N(C(=O)c2ccc(C(F)(F)F)cc2)[C@H]2CC[C@H](O)CC2)c(C(=O)O)s1 [Compound 22] | 1000 to 10000 | – | – | – | – | –
Cc1ccc(C(=O)N(c2cc(C#CC(C)(C)C)sc2C(=O)O)[C@H]2CC[C@H](O)CC2)c(F)c1 [Compound 54, 5-(3,3-Dimethyl-but-1-ynyl)-3-[(2-fluoro-4-methyl-benzoyl)-(trans-4-hydroxy-cyclohexyl)-amino]-thiophene-2-carboxylic acid] | 1000 to 10000 | – | – | – | – | –
CC(C)(C)C#Cc1cc(N(C(=O)c2ccc(Cl)cc2Cl)C2CCOCC2)c(C(=O)O)s1 [Compound 26, 3-[(2,4-Dichloro-benzoyl)-(tetrahydro-pyran-4-yl)-amino]-5-(3,3-dimethyl-but-1-ynyl)-thiophene-2-carboxylic acid] | 1000 to 10000 | 10000 to 100000 | < 100 | – | – | –
